Results: patent publication EP0182608B1, “Polycyclic compounds, their preparation and formulations containing them” (priority 1984, dated 1986)

Tested on: P388/0 tumor cells
Test: Lymphocytic Leukemia P388/0 Test
Format: in vivo, CD2-F₁ mice
Details: for LD₂₀: CD2-F₁ mice, intraperitoneally on days 1, 5 and 9; for 30 DAY Survivors: at the optimal dose, survivors out of 6 animals per dose level group; for T/C x 100% (Excluding 30 Day Survivors): ratio of median survival time treated/control at the optimal dose, i.p. days 1, 5, 9, criterion for activity T/C x 100 ≧120%
Source text: Methods for evaluating the antitumor activity of these compounds are essentially those used in the Tumor Panel by the Development Therapeutics Program, Division of Cancer Treatment, National Cancer Institute, A. Goldin, et al., Methods in Cancer Research, Vol. XVI, p. 165, Academic Press (1979). Some modifications, in dose level and schedule have been made to increase the testing efficiency.
CD2-F₁ mice, of the same sex weighing within 20±3g, are used for this test. Control and test animals are injected intraperitoneally with a suspension of 10⁶ viable P388/0 tumor cells on day 0. In each test several dose levels which bracket the LD₂₀ for the compound are evaluated; each dose level group contains 6 animals. The test compounds are prepared either in physiologic saline containing 0.05% Tween 80 or distilled water containing 5% dextrose and are administered intraperitoneally on days, 1, 5, and 9 relative to tumor implant. Doses are on a mg/kg basis according to individual animals' body weights. the day of death for each animal is recorded, the median identified for each group and the ratios of median survival time for treated (T)/control (C) groups are calculated. The criterion for activity is T/C x 100 ≧120%.

Compound | LD₂₀ [mg/kg] | 30 DAY Survivors | T/C x 100% (Excluding 30 Day Survivors)
2-Methyl-2-[[(7-methyl-7-H-benzo[c]carbazol-10-yl) methyl]amino-1,3-propanediol hydrochloride 3/10 hydrate [Example 4C] | 55 | 6/6 | no deaths
CC(CO)(CO)NCc1cc2c3ccccc3sc2c2ccccc12 [Example 1, 2-((Benzo[b]naphtho [2,1-d]thiophen-5-ylmethyl)amino)-2-methyl-1,3-propanediol methanesulfonate] | 35 | 1/6 | +210%
CC(CO)(CO)NCc1c2ccccc2cc2c1oc1ccccc12 [Example 2B, 2-((Benzo[b]naphtho[2,3-d]furan-6-ylmethyl)amino]2-methyl-1,3-propanediol methanesulfonate] | 125 | 1/6 | +204%
CC(CO)(CO)NCc1cc2oc3ccccc3c2c2ccccc12 [Example 3B, 2-((Benzo[b]naphtho[1,2-d]furan-5-ylmethyl)amino)-2-methyl-1,3-propanediol methanesulfonate] | 10 | 2/6 | +230%
CC(CO)(CO)NCc1cc2c3ccccc3oc2c2ccccc12 [Example 5B] | 100 | 4/6 | +255%
CC(CO)(CO)NCc1cccc2cc3c(cc12)oc1ccccc13 [Example 6B, 2-[(Benzo[b]naphthol[2,3-d]furan-7-ylmethyl)amino]-2-methyl-1,3-propanediol methanesulphonate 1/4 hydrate] | 35 | 0/6 | +210%
